How the values were obtained:
[1] = test system: MAO; assay: Total MAO activity, spectrophotometric assay in liver homogenate; format: biochemical, cow or rat; settings: for percent inhibition of MAO activity: at maximal or saturating inhibition concentrations, tyramine substrate, 37 degrees Centigrade; for maximal inhibition concentration: dissolved in distilled water, concentration curve at reaction time of one hour; for MAO inhibition over the reaction time course: saturating concentrations, over 60 minutes of MAO activity
Procedure: The MAO activities of the compounds and substances were determined using standard reaction conditions as described in Halt, A., et al., Analytical Biochemistry, 244:384-392 (1997).
(§1) Liver samples from cow or rat were obtained immediately after sacrifice. Liver was homogenized in a Polytron mechanical homogenizer in a ratio of 1 gram of liver to 1 ml of potassium phosphate buffer (0.2 M at pH of 7.6). Large membranes were removed by low speed centrifugation at 1000×g for 15 minutes. The supernatant was removed from the pellet and used immediately for MAO activity assays or stored at 0 degrees Centigrade. Protein levels were determined in the liver homogenate by the Bradford protein reaction.
(§2) The standard reaction conditions were developed as a modification of the spectrophotometric assay using standard conditions (Halt, A., et al., Analytical Biochemistry, 244:384-392 (1997)). Total MAO activity was determined by incubating the liver preparations for 30 minutes at 37 degrees Centigrade with a 1/1 dilution of a test fraction (compound or substance to be tested dissolved in distilled water) or control condition (water alone). This incubation allowed the test compound or substance to interact with the enzyme under physiological conditions. The final tissue concentration in the reaction mixture was 3.5 mg per 100 ml.
Following the incubation with test compounds/substances or control, the MAO reactions were initiated and the reactions were incubated at 37 degrees Centigrade. The reaction was initiated by mixing 150 μl of preincubated tissue with 150 μl of chromogenic solution (containing 10 mM vanillic acid, 5 mM 4-amino antipyrene, 20 units/ml of peroxidase in 0.2 M potassium phosphate buffer final concentration pH 7.6), 600 μl of amine substrate (tyramine 500 micromolar), and 100 μl of distilled water (1 ml reaction volume). The standard reaction time was for 1 hour, but reaction times varied from 1 minute to 3 hours to evaluate the time course of the reaction in the presence or absence of test substance or control. The reactions were terminated by the addition of 30 μl of a stop solution of phenelzine (10 mM). The stopped reactions were stored on ice and placed at room temperature for reading in a spectrophotometer at a wavelength of 498 nm. The resulting values were analyzed to determine the amount of reaction product produced by MAO activity. This assay was reliable and simple to perform. A standard curve using hydrogen peroxide for enzyme activity was prepared for each experiment to determine the activity of the enzyme.
(§3) Each of the compounds and substances of the present invention were evaluated by initially determining a concentration curve at a reaction time of one hour. After determining the concentration curves of each compound or substance on MAO activity, a reaction time course in the presence or absence of test compound or substance was determined and time course curves were generated. Following these experiments, the effect of each test compound or substance was evaluated on MAO A and MAO B activity by the same reaction studies as described above for the total enzyme activity.

[2] = test system: MAO A; assay: Selective MAO A assay in liver homogenate, other isoform blocked by selective inhibitor; format: biochemical, cow or rat; settings: saturating concentration; significantly different from control
Procedure: as §1
as §2, with “This incubation allowed the test compound or substance to interact with the enzyme under physiological conditions. The final tissue concentration in the reaction mixture was 3.5 mg per 100 ml.” left out
(§4) Following the incubation with test compounds/substances or control, the MAO reactions were initiated and the reactions were incubated at 37 degrees Centigrade. […] The stopped reactions were stored on ice and placed at room temperature for reading in a spectrophotometer at a wavelength of 498 nm. The resulting values were analyzed to determine the amount of reaction product produced by MAO activity. […]
(§5) Selective assays of MAO A and MAO B isoforms were determined by using selective inhibitors of each of these enzymes. […]
as §3

[3] = test system: MAO B; assay: Selective MAO B assay in liver homogenate, other isoform blocked by selective inhibitor; format: biochemical, cow or rat; settings: saturating concentration; significantly different from control
Procedure: as §1
as §2, with “This incubation allowed the test compound or substance to interact with the enzyme under physiological conditions. The final tissue concentration in the reaction mixture was 3.5 mg per 100 ml.” left out
as §4, §5, §3

[4] = test system: MPTP induced toxicity; settings: mice, cited from earlier work; for effect on dopamine levels: MPTP

| Structure (SMILES) | percent inhibition of MAO activity [1] | maximal inhibition concentration [1] [mg/mL] | MAO inhibition over the reaction time course [1] | inhibition of MAO A activity [2] | inhibition of MAO B activity [3] | effect on dopamine levels [4] | effect on decrease in dopamine metabolite levels induced by MPTP [4] |
| --- | --- | --- | --- | --- | --- | --- | --- |
| c1cncc([C@@H]2CCCCN2)c1 [anabasine, Anabasine] | 10-13% | 0.2 | effective at inhibiting the enzyme at all time points in the reaction | inhibit both MAO A and MAO B activity | inhibit both MAO A and MAO B activity | – | – |
| c1cncc([C@@H]2CCCN2)c1 [nornicotine, Nornicotine] | 80 to 95% | 0.08 | effective at inhibiting the enzyme at all time points in the reaction | equally effective in inhibiting both MAO A and MAO B activities | equally effective in inhibiting both MAO A and MAO B activities | – | – |
| C1=CCC(c2cccnc2)NC1 (stereo not shown) [anatabine, Anatabine] | approximately 60% | 0.1 | effective at inhibiting the enzyme at all time points in the reaction | equally effective in inhibiting both MAO A and MAO B activities | equally effective in inhibiting both MAO A and MAO B activities | – | – |
| CN1CCCC1c1cccnc1 (stereo not shown) [nicotine] | – | – | – | – | – | no significant effect on dopamine levels | prevented the decrease in dopamine metabolite levels |
| c1ccc(-c2ccncc2)cc1 [4-phenylpyridine] | – | – | – | – | – | no significant effect on dopamine levels | prevented the decrease in dopamine metabolite levels |
